Test results as given in ChEMBL document CHEMBL1201862, “PubChem BioAssay data set” (2004).
Active and inactive are the calls of the source.

Experiments:
[1] = molecular target: T1, Heat shock factor protein 1 (Mus musculus, UniProt P38532); assay: HSF1 potentiators in luciferase reporter cells, confirmation, cell-based, NIH3T3, luminescence, dose retest (AID 435004); type: functional;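 further: stress induced by proteasome inhibitor MG132 added 30 min after compound; luciferase reporter driven by HSF1 response element in NIH3T3 cells; actives raise luminescence as potentiators of the MG132 stress response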
T1 sequence (P38532 whole entry): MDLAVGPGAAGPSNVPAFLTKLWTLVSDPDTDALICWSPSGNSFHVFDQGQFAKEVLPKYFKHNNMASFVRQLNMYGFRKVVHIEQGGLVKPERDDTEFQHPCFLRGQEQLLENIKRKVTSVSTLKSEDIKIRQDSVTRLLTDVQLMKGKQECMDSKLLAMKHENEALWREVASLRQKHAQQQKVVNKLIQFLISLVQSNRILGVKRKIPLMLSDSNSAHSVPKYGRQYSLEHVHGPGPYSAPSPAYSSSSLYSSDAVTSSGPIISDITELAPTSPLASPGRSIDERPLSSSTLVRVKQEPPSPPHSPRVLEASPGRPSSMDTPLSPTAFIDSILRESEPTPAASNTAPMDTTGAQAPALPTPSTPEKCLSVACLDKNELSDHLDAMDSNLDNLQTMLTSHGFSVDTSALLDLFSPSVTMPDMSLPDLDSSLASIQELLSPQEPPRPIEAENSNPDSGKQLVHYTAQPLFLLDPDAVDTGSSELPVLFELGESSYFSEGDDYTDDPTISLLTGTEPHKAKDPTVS

[2] = molecular target: T2, Replicative DNA helicase DnaB (Mycobacterium tuberculosis, UniProt P9WMR3); assay: DnaB intein splicing inhibitors, dose response, biochemical, cell-free fluorescence (AID 449749); type: functional
T2 sequence (P9WMR3 whole entry): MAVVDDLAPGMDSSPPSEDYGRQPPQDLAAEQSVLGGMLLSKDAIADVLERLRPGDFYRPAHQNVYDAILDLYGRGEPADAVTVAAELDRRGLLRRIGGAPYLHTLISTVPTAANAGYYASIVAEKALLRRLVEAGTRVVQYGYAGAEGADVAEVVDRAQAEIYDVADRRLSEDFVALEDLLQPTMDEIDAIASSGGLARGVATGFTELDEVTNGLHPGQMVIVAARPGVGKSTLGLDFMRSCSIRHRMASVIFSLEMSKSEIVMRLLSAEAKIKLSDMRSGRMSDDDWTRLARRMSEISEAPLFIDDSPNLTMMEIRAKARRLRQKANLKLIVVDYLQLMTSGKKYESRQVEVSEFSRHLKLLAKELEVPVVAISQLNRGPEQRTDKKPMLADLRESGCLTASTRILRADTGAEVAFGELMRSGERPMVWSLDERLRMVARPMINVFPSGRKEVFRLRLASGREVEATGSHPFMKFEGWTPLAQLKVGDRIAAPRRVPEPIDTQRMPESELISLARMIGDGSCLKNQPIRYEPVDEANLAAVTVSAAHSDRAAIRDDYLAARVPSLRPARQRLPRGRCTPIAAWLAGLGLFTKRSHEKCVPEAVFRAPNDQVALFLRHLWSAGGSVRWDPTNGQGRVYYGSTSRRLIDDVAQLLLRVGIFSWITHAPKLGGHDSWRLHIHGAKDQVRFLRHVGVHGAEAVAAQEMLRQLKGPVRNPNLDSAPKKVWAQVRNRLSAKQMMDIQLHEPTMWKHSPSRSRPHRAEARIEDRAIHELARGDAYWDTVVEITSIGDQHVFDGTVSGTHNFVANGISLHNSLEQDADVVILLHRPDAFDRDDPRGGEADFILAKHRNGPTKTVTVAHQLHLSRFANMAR

Protein RecA = molecular target: T3, Protein RecA (Mycobacterium tuberculosis, UniProt P9WHJ3); assay: Fluorescence Cell-Free Homogeneous Dose Retest to Identify Inhibitors of RecA-Intein Splicing Activity. [Related pubchem assays (depositor defined):AID2097, AID2223, AID489010, AID492950]; type: functional
T3 sequence (P9WHJ3 whole entry): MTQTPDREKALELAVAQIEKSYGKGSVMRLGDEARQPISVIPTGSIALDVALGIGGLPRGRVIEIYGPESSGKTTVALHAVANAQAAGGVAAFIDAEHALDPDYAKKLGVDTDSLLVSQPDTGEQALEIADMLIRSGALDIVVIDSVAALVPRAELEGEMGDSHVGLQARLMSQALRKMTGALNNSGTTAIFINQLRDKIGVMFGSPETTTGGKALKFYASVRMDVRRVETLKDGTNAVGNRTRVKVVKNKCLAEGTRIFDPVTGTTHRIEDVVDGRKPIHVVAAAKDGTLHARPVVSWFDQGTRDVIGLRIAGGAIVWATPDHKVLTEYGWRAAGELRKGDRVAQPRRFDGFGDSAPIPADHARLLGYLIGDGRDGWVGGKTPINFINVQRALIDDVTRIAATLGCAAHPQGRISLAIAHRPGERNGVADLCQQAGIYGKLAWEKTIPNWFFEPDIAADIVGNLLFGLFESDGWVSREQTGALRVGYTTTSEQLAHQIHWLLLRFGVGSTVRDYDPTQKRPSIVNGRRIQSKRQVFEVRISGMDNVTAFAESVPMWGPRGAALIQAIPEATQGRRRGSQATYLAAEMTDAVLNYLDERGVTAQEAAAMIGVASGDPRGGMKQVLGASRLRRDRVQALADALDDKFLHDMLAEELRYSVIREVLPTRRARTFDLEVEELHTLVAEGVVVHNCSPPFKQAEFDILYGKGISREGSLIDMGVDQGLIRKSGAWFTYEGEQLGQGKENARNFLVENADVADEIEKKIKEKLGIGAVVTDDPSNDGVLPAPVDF

[3] = inhibitors of HIV Env-driven cell fusion, dose response, cherry-pick (AID 652057); type: functional, cell-based
[4] = CEM21 lymphoblast cell cytotoxicity, dose response, cytotoxicity control for viral fusion inhibitor project, CellTiter-Glo luminescence, cherry-picked (AID 652042); type: functional, cell-based;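 further: potency for signal decrease meaning cytotoxicity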
[5] = ZM109 Env clade C HIV-1 fusion inhibitors, dose response, HeLa effector, CEM target cells, luciferase, cherry-pick (AID 652058); type: functional, cell-based
[6] = off-target signal loss in HeLa-CEM21 co-culture – HeLa F-luc CTL cells, cherry-picked, counter-screen for HIV-1 Env fusion inhibitor project, dose response (AID 652040); type: functional, cell-based;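 further: potency for signal decrease marking cytotoxic or nonspecific inhibition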
[7] = inhibitors of clade B AD8 Env fusion, dose response, cell-based, cherry-pick (AID 652062); type: functional;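 further: luciferase signal from cell-cell fusion driven by HIV-1 clade B AD8 Env; potency is for inhibitors of fusion seen as a drop in luminescence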
Cytochrome P450 3A4 = Cytochrome P450 3A4 (Homo sapiens, UniProt P08684);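 further: CYP3A4 tested as one member of a cytochrome P450 panel screen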
Cytochrome P450 2C9 = Cytochrome P450 2C9 (Homo sapiens, UniProt P11712)
[8] = microbe, parasite or virus in culture; type: functional; conditions: Mycobacterium tuberculosis
INS1 = assay: beta cell apoptosis inhibitors, cytokine rescue, dose response, luminescence, retest (AID 449756); type: functional, cell-based; conditions: Rattus norvegicus;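 further: cell death triggered by IL-1 beta plus TNF-alpha plus IFN-gamma mixture; protective hits raise ATP signal compared with cytokine alone wells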
Cytochrome P450 1A2 = molecular target: T4, Cytochrome P450 1A2 (Homo sapiens, UniProt P05177);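 further: PubChem cytochrome P450 panel assay, CYP1A2 panel member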
T4 sequence (P05177 whole entry): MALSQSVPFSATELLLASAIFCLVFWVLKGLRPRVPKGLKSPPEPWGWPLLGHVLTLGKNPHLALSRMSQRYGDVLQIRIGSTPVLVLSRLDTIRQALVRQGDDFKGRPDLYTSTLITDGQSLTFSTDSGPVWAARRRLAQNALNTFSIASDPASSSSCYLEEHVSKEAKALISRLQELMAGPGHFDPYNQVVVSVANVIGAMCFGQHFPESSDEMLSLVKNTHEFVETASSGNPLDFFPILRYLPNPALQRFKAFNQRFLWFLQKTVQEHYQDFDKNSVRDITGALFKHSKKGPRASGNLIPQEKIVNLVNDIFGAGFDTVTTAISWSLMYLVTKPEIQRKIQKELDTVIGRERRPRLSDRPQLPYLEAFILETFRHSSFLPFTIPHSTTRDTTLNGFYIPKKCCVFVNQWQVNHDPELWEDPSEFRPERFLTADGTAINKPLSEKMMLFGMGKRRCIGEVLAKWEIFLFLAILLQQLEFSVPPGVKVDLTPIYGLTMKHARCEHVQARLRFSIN

Cytochrome P450 2D6 = Cytochrome P450 2D6 (Homo sapiens, UniProt P10635);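 further: CYP2D6 member of a cytochrome P450 panel assay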
Cytochrome P450 2C19 = Cytochrome P450 2C19 (Homo sapiens, UniProt P33261); assay: Cytochrome panel assay with activity outcomes. Panel member name: p450-cyp2c19 Compounds with AC50 equal or less than 10 uM are considered active; type: functional
[9] = molecular target: FAD-linked sulfhydryl oxidase ALR (Homo sapiens, UniProt P55789); assay: inhibitors of human ALR sulfhydryl oxidase, dose response, biochemical, H2O2 detection, luminescence, cherry-pick (AID 493248)
Chain of FAD-linked sulfhydryl oxidase ALR (P55789 whole entry): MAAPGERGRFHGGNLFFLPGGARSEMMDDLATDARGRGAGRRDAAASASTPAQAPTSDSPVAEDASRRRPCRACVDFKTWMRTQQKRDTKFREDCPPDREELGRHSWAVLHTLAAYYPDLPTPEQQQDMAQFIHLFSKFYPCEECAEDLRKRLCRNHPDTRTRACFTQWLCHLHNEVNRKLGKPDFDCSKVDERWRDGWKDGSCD

Chain of Cytochrome P450 2C9 (P11712 whole entry): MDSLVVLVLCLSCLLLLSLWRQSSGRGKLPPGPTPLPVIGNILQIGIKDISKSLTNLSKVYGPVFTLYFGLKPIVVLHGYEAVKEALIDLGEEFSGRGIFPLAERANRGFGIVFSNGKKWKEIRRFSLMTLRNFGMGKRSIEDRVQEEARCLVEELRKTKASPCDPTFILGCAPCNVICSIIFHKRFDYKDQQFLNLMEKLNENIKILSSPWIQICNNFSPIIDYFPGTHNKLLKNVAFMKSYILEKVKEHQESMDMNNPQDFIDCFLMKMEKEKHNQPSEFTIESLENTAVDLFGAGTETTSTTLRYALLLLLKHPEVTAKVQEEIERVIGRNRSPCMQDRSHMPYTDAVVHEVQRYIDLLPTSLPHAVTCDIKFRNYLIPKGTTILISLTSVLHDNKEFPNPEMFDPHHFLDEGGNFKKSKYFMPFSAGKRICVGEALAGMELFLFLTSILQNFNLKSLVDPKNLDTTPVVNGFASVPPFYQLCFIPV
Chain of Cytochrome P450 2C19 (P33261 whole entry): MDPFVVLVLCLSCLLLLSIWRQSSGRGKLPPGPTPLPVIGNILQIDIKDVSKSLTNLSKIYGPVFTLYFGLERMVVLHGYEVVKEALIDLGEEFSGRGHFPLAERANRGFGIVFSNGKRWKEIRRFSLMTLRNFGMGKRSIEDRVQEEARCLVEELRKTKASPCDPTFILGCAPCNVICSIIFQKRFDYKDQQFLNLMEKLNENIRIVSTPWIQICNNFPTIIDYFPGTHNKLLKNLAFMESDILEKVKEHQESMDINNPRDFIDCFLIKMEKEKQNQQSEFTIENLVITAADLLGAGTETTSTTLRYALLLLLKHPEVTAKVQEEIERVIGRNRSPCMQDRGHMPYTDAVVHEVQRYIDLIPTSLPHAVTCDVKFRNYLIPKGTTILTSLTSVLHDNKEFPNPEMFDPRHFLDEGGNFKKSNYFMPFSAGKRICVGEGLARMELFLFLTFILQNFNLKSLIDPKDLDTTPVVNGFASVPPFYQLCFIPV
Chain of Cytochrome P450 3A4 (P08684 whole entry): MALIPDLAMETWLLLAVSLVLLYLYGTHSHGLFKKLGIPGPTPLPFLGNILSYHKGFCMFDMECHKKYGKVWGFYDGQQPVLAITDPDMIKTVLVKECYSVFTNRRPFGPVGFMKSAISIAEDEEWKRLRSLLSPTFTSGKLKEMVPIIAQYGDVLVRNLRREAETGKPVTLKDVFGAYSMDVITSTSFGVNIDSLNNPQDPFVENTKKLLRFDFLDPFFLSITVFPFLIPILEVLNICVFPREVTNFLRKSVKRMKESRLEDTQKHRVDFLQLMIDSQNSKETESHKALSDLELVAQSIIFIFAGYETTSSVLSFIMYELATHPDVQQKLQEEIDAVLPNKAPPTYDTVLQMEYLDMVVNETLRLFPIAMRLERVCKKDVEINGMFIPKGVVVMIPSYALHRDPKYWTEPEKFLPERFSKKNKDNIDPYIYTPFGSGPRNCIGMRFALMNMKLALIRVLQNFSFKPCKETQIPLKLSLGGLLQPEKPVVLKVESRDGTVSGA
Chain of Cytochrome P450 2D6 (P10635 whole entry): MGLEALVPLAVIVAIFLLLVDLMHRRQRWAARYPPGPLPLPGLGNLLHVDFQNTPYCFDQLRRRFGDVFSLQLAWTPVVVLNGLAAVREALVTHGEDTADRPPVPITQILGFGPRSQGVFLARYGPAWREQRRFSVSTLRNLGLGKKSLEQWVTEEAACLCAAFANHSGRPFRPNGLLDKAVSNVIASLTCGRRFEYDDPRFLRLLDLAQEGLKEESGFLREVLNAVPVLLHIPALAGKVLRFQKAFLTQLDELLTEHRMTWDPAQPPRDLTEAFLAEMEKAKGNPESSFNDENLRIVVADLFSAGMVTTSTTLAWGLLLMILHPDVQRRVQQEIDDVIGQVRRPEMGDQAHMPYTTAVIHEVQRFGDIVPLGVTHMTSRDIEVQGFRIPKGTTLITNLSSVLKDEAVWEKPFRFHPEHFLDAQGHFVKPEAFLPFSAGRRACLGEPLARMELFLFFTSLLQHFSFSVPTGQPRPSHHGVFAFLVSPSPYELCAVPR

Row | Compound | AC50 [3] | AC50 [4] | AC50 [5] | AC50 [6] | AC50 [7] | AC50 (Cytochrome P450 2C9) | AC50 (Cytochrome P450 1A2) | other results
1 | Cc1ccc(S(=O)(=O)c2c(N)n(CCC(C)C)c3nc4ccccc4nc23)cc1 | 9.53 µM (active) | 22.7 µM (active) | 24.9 µM (active) | 18.6 µM (active) | 35.4 µM (active) | – | – | EC50 [1]: > 260 µM (inactive); AC50 [2]: > 380 µM (inactive); EC50 (Protein RecA): 3.98 µM (active)
2 | Cc1ccc(NC(S)=NCCN2CCOCC2)cc1C | – | – | – | – | – | inconclusive | – | AC50 (Cytochrome P450 3A4): 15.8 µM (inconclusive)
3 | Cc1cccc(CNc2ncnc3ccc(-c4ccc5c(c4)OCCO5)cc23)c1 | 27.9 µM (active) | 5.98 µM (active) | 5.84 µM (active) | > 70 µM (inactive) | 8.48 µM (active) | – | – | CC50 [8]: > 40 µM (active); AC50 (INS1): 7.74 µM (active)
4 | CC(C)Cn1c(SCC(=O)c2c(N)n(C)c(=O)n(C)c2=O)nc2ccccc21 | – | – | – | – | – | inconclusive | 25.1 µM (inconclusive) | –
5 | COc1ccccc1-c1cc(C(=O)Nc2cc(C)n(Cc3ccc(Cl)cc3)n2)no1 | – | – | – | – | – | inconclusive | 0.794 µM (inconclusive) | AC50 (Cytochrome P450 2D6): 0.891 µM (inconclusive)
6 | COc1ccccc1NC(=O)c1nn(-c2cccc(C(F)(F)F)c2)ccc1=O | – | – | – | – | – | inconclusive | – | –
7 | O=C(Cc1ccccc1)N/N=C/C=C/c1cccc([N+](=O)[O-])c1 | – | – | – | – | – | inconclusive | 15.8 µM (inconclusive) | AC50 (Cytochrome P450 2C19): inconclusive
8 | CSc1nc(O)c(Nc2cccc(Cl)c2)c(O)n1 | – | – | – | – | – | – | – | AC50 [9]: 1.14 µM (active); AC50 [2]: 64.9 µM (active); EC50 (Protein RecA): 1.92 µM (active)
9 | Cl.OC1(c2ccc(F)cc2)CCNC1 (stereo unspecified) | – | – | – | – | – | inconclusive | – | AC50 (Cytochrome P450 2C19): inconclusive
10 | CCc1ccc(CN2CCN(C(=O)c3cccc(OC)c3OC)CC2)cc1 | 1.66 µM (active) | 67.5 µM (active) | 2.01 µM (active) | 26.2 µM (active) | 11.8 µM (active) | – | – | –
